Data taken from publication PMC8587999, “Assessment of the Activity of Decoquinate and Its Quinoline-O-Carbamate Derivatives against Toxoplasma gondii In Vitro and in Pregnant Mice Infected with T. gondii Oocysts” (Molecules, 2021).
Like-named read-outs stand apart in the source and are kept apart here.

Columns and labels:
[1] = test system: BAG1 (bradyzoite antigen 1) expression in T. gondii Me49; test: Immunofluorescence staining for BAG1 expression in TgMe49-infected HFF; type: cell-based, Toxoplasma gondii; settings: treatment for 48 h
Experimental: For immunofluorescence microscopy, 4 × 10^4 HFF were grown on glass coverslips for 24 h to form a sub-confluent monolayer and were exposed to 1.2 × 10^5 TgMe49 tachyzoites during 4 h at 37 °C and 5% CO2. The medium was replaced and supplemented with 20 nM DCQ and RMB060, or medium containing DMSO as control. Cultures infected with TgPgSp1 (low passage number) served as positive control for BAG1 (bradyzoite antigen 1) expression. Infected cells were cultured for 16 h, 24 h, and 48 h and fixed and labelled for immunofluorescence staining as described previously. A polyclonal rabbit anti-BAG1 antiserum was applied at 1:200 dilution, followed by a goat-anti-rabbit fluorescein-isothiocyanate conjugate (1:300), the monoclonal mouse anti-TgSAG1 antibody was diluted (1:100), followed by goat anti-mouse conjugated to tetramethylrhodamine-isothiocyanate at 1:300. Subsequently, samples were mounted in H-1200 Vectashield mounting medium (Vector Laboratories, Burlingame, CA, USA) containing 4,6-diamidino-2-phenylindole and were viewed on a Nikon E80i fluorescence microscope (Tokyo, Japan). Processing of images was performed using Openlab 5.5.2 (Improvision, PerkinElmer, Waltham, MA, USA) and the ImageJ software, version 1.53 m.

[2] = test system: T. gondii Me49 tachyzoites; test: TEM of T. gondii Me49 tachyzoites cultured in HFF under drug treatment; type: cell-based, Toxoplasma gondii
Experimental: For transmission electron microscopy (TEM), HFF grown in T25 culture flasks were infected with 10^7 TgMe49 tachyzoites and incubated for 3 h at 37 °C and 5% CO2. Subsequently, cultures were exposed to continuous treatment of 6h, 24 h, 48 h, and 72 h with 0.5 μM DCQ, RMB054 or RMB060, and 1 µM RMB055. Infected cultures treated with DMSO served as controls. TEM preparations were performed as described earlier. Samples were observed on a Philips CM 12 (Philips Research, Eindhoven, Holland) or a FEI Tecnai Spirit BioTwin TEM (TESCAN GmbH, Dormund, Germany), both operating at 80 kV.

[3] = test system: T. gondii Me49 tachyzoites; test: Long-term drug treatment of TgMe49-infected HFF in vitro; type: cell-based, Toxoplasma gondii
Experimental: HFF cytotoxicity assessments and IC50 determinations using cultures of Tg-β-gal tachyzoites grown in HFF were carried out as described previously. IC50 values were calculated with the logit-log-transformation of the relative growth and subsequent regression analysis was done with the corresponding software tool contained in Microsoft Excel software package (Microsoft, Seattle, WA). For the long-term treatments, HFF grown in T25 culture flasks were infected with 5 × 10^5 TgMe49 tachyzoites, and after 4.5 h 0.5 μM DCQ, RMB054 or RMB060 were added. Infected cultures treated with the highest corresponding concentration of DMSO (0.5%) served as controls. […] Cultures were inspected by light microscopy on a daily basis. On days 3, 6, 9, 13, 16, 20 and 24, the compound-containing medium was removed, and parasites were maintained without drug pressure until host cell lysis (plaque formation) was evident.

[4] = test system: human foreskin fibroblasts (HFF); test: HFF cytotoxicity assessment; type: cell-based; settings: for IC50: Homo sapiens, Fibroblast, uninfected HFF, no decline in viability over the concentration range
Experimental: (§1) HFF cytotoxicity assessments and IC50 determinations using cultures of Tg-β-gal tachyzoites grown in HFF were carried out as described previously. IC50 values were calculated with the logit-log-transformation of the relative growth and subsequent regression analysis was done with the corresponding software tool contained in Microsoft Excel software package (Microsoft, Seattle, WA). For the long-term treatments, HFF grown in T25 culture flasks were infected with 5 × 10^5 TgMe49 tachyzoites, and after 4.5 h 0.5 μM DCQ, RMB054 or RMB060 were added. Infected cultures treated with the highest corresponding concentration of DMSO (0.5%) served as controls. Prolonged treatments for up to 24 days were carried out, with the addition of fresh medium containing the respective drug every 3–4 days. Cultures were inspected by light microscopy on a daily basis. On days 3, 6, 9, 13, 16, 20 and 24, the compound-containing medium was removed, and parasites were maintained without drug pressure until host cell lysis (plaque formation) was evident.

[5] = Pregnancy interference test in non-infected BALB/c mice; type: in vivo; settings: for No. of Non-Pregnant Mice/No. of Mice / No. of Pregnant Mice/No. of Mice: non-infected BALB/c; for Litter Size: total pups per group
Experimental: Eighteen female and 9 male BALB/c mice, all 8 weeks of age, were used. The females were oestrus-synchronized for 3 days by the Whitten effect and were mated by housing 2 females and 1 male for 72 h in one cage. Males were removed after mating and females were randomly assigned to 3 experimental groups of 6 mice each: DCQ; RMB060; placebo. On days 9–13 post-mating, DCQ and RMB060 were supplied at 10 mg/kg/day in 100 μL corn oil by oral gavage. The placebo group only received corn oil. Mice were observed and weighed on several days and on day 18, post-mating pregnant females were separated into single cages. […] Dams and pups were observed daily and data on fertility, litter size, neonatal and postnatal mortality was recorded for the following 2 weeks. All mice were euthanized in a chamber by isoflurane/CO2 inhalation.

T. gondii = settings: cited from earlier work
[6] = test system: T. gondii β-gal tachyzoites; test: IC50 determination with T. gondii β-gal tachyzoites grown in HFF monolayers; type: cell-based, Toxoplasma gondii; settings: for IC50: Toxoplasma gondii
Experimental: The efficacy of DCQ in vitro was determined using T. gondii β-gal constitutively expressing β-galactosidase grown in HFF monolayers. […] The low IC50 values and the low degree of cytotoxicity against HFF host cells in vitro encouraged us to examine the efficacy of oral treatment of CD1 mice infected with T. gondii oocysts with DCQ at 10 mg/kg/day for 5 days.
Due to the negative effects of treatment with DCQ, we investigated the efficacy in vitro of the three DCQ derivatives RMB054, RMB055 and RMB060 (Figure 1) in comparison to DCQ. Different concentrations of DCQ and the derivatives in DMSO were added to HFF either concomitantly with infection of T. gondii-β-gal tachyzoites, or 3 h after infection. […] The corresponding dose-response curves are shown in Supplementary Materials Figure S1. The viability of uninfected HFF was not impaired by the compounds up to concentrations of 5 µM (DCQ and RMB054) or 10 µM (RMB055, RMB060) (Table 1).
as §1

[7] = design: method as in PMID 19614848; settings: milking cows, formulated DCQ 0.5 mg/kg; cited from earlier work
[8] = 10 mg/kg/day oral, days 9–13 post-mating
[9] = HFF vs T. gondii, compound applied prior to / concomitantly with infection
[10] = Tg-β-gal in HFF, compound added 3 h post-infection, [upper, lower limit of 95% CI], read-out: IC50 T. gondii (nM) [LS, LI] Compound Added 3 h Post-infection
[11] = Tg-β-gal in HFF, compound added prior to / concomitantly with infection, [upper, lower limit of 95% CI], read-out: IC50 T. gondii (nM) [LS, LI] Compound Added Prior to Infection
[12] = short-term growth assays, added with infection or 3 h after, read-out: IC50 T. gondii, range depending on the time point of initiation of treatment

Compound | Expression of the bradyzoite marker BAG1 [1] | Concentration up to which viability of uninfected HFF was not impaired [4] [µM] | IC50 [4] [nM] | Interference in pregnancy [5, 8] | No. of Non-Pregnant Mice/No. of Mice [5, 8] | No. of Pregnant Mice/No. of Mice [5, 8] | Litter Size [5, 8] | Selectivity Index [6, 9] | IC50 [6, 10] [nM] | IC50 [6, 11] [nM] | IC50 [6, 12] [nM] | also measured
CCCCCCCCCCOc1cc2c(OC(=O)N3CCN(S(C)(=O)=O)C3=O)c(C(=O)OCC)cnc2cc1OCC [RMB060] | expression of the bradyzoite marker BAG1 in the cytoplasm of some, but not all, parasites | 10 | > 10000 | only minor interference in pregnancy | 2/6 | 4/6 | 27 | >142,857 | 0.7 | 0.07 | 0.07 to 0.7 | Ultrastructural alterations of the parasite mitochondrion (TEM) ([2]; 500 nM for 6 h, treatment started 3 h after infection): mitochondrial matrix had a less electron dense appearance and dissolved cristae became evident; Killing of tachyzoites after long-term exposure ([3]; 300 nM for 52 days): did not result in the complete killing of all tachyzoites; Concentration to which tachyzoites adapted, fold the IC50 ([3]; exposure for longer timespans, parasites resumed proliferation and formed lysis plaques): up to 4286 fold; Postnatal Mortality [5, 8]: 0/24; Neonatal Mortality ([5]; first 2 days post-partum, 10 mg/kg/day oral, days 9–13 post-mating): 3/27; IC50 (T. gondii; read-out: previously reported IC50 against T. gondii): 1.1 nM; Concentration that caused a complete growth inhibition in dose response assays ([6]; T. gondii tachyzoites in HFF): 500 nM; Selectivity Index ([6]; compound added to intracellular parasites at 3 h post-infection): > 14,000
CCCCCCCCCCOc1cc2c(O)c(C(=O)OCC)cnc2cc1OCC [DCQ, ethyl 6-decyloxy-7-ethoxy-4-oxo-1H-quinoline-3-carboxylate] | induced the expression of BAG1 | 5 | > 5000 | strong interference in pregnancy outcome | 4/6 | 2/6 | 7 | >4545 | 4.7 | 1.1 | 1.1 to 4.7 | Ultrastructural alterations of the parasite mitochondrion (TEM) ([2]; within 24 h): distinct alterations in the parasite mitochondrion; maximum concentration attained in plasma [7]: 2 µM; Parasiticidal effect after long-term treatment ([3]; 500 nM, 52 days): no parasiticidal effect; Parasiticidal effect in long-term treatment assays ([3]; up to 500 nM per day for 24 days): not parasiticidal; Neonatal Mortality ([5]; female, BALB/c, mouse, in vivo, po, 10 mg/kg/day): 0/7; Effect of treatment of infected cultures, T. gondii RH strain (T. gondii; 240 nM): tissue cyst formation; IC50 (T. gondii; read-out: IC50, inhibition of T. gondii proliferation in vitro): 12 nM
